3 compounds from patent US20230013304A1, “N2-ARYLMETHYL-4-HALOALKYL-PYRIDAZIN-3-ONE CFTR MODULATORS FOR THE TREATMENT OF CYSTIC FIBROSIS” (UNIVERSITE DE REIMS CHAMPAGNE-ARDENNE, priority 2019, published 2023) can be followed below.

This test concerns CFTR channel. The test can be described thus: CFTR-dependent halide transport, YFP-H148Q/I152L fluorescent probe (Premo Halide Sensor kit) in osteoblasts. In kind it is cell-based. As to conditions: for restoration of the CFTR channel activity: on average, compared with reference substances (Ivacaftor, Lumacaftor, Orkambi). How it is done:
To evaluate the action of the compounds according to the invention on the restoration of CFTR activity, said compounds were tested in vitro using a suitable Premo Halid Sensor kit (Invitrogen).
The transport of CFTR-dependant chloride ions is thus first evaluated in osteoblasts with the use of a fluorescent probe (halide-sensitive yellow fluorescent protein (YFP)-H148Q/I152 L protein (Life Technologies, Saint Aubin, France)) (FIG. 1).
48 h after transfection of the probe into the cell, CFTR channel activity is stimulated using a solution composed of forskolin, 3-isobutyl-1-methylxanthine and apigenine (each component in a concentration of 10 μM). An iodine solution (140 mM) was then added and the fluorescence was recorded using a plate reader (400 ms/point; Ft) over a period of 60 s (baseline; F0). The decrease in the Ft/F0 ratio represents the restoration of chloride activity of the CFTR channel.
For quantitative analyses, the gradients of the signals obtained are processed in non-linear regressions and correlated to the level of conductance of chloride ions.

Take `COc1ccc(Cn2nc(-c3ccc(OC(F)F)c(OC)c3)cc(C(F)(F)F)c2=O)cc1` [Compound 4, 6-(4-(difluoromethoxy)-3-methoxyphenyl)-2-(4-methoxybenzyl)-4-(trifluoromethyl)pyridazin-3(2H)-one]: under “osteoblasts, FIG. 1”, the “restoration of CFTR channel activity compared with Ivacaftor and Lumacaftor” value was “better restoration of CFTR channel activity than those obtained with Ivacaftor and Lumacaftor”; the “restoration of the CFTR channel activity” value was 150%.

With `COc1ccc(-c2cc(C(F)(F)F)c(=O)n(Cc3ccccc3)n2)cc1OC` [Compound 1, 2-benzyl-6-(3,4-dimethoxyphenyl)-4-(trifluoromethyl)pyridazin-3(2H)-one], for the setting “osteoblasts, FIG. 1”, the “restoration of CFTR channel activity compared with Ivacaftor and Lumacaftor” value is “better restoration of CFTR channel activity than those obtained with Ivacaftor and Lumacaftor”; the “restoration of CFTR channel activity compared with Orkambi” value was “restoration of CFTR channel activity similar to that obtained with Orkambi”; the “restoration of the CFTR channel activity” value amounted to 150%.

As for CFTRinh-172 [reference compound], the “decrease in fluorescence (Ft/F0) in the presence of the inhibitor” value (CFTRinh-172 10 μM, untreated osteoblasts, control) is “no decrease in fluorescence was observed”.
